Experimental data from US9439888B2, “Tetrazolones as a carboxylic acid bioisosteres” (RIGEL PHARMACEUTICALS, INC., priority 2015, dated 2016).

Columns and labels:
[1] = target: T1, angiotensin II receptor type 1 (AT1) (Homo sapiens, UniProt P30556); assay: AT1 antagonist activity: inhibition of response to 3 nM angiotensin-II, intracellular Ca2+ by fluorimetry; assay type: cell-based; conditions: HEK-293 cells expressing hAT1
T1 construct: expressed in transfected cells; host or cells: HEK-293
T1 sequence (P30556 1-359): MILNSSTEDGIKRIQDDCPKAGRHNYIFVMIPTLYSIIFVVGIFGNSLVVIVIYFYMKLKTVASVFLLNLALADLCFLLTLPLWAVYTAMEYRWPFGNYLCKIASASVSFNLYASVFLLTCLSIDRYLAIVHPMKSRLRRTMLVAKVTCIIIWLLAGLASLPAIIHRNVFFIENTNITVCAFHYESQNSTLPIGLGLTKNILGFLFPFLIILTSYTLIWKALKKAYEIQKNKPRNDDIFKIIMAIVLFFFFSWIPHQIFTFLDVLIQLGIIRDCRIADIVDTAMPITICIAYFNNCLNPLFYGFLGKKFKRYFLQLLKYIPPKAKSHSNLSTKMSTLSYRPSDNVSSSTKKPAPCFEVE

[2] = target: T2, retinoid X receptor alpha (RXRa) (Homo sapiens, UniProt P19793); assay: RXRα agonist activity assay
T2 sequence (P19793 1-462): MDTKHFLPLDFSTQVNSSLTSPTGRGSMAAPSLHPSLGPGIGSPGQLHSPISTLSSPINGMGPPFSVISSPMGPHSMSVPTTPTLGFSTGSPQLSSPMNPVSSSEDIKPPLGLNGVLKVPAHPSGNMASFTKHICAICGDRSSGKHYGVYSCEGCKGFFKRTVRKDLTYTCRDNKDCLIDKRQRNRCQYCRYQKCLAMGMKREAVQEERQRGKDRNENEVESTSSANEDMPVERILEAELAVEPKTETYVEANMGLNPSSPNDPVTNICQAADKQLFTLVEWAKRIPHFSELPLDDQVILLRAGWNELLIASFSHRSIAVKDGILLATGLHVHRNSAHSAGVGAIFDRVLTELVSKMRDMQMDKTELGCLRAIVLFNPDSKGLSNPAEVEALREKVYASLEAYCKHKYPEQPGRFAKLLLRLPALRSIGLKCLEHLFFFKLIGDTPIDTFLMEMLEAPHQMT

IC50 [1] [nM] | Kb [1] [nM] | EC50 [2] [nM] | Compound
1.7 | 0.14 | – | CCCc1nc2c(C)cc(-c3nc4ccccc4n3C)cc2n1Cc1ccc(-c2ccccc2-n2nn[nH]c2=O)cc1 [6t]
– | – | 64 | C=C(c1ccc(-n2nn[nH]c2=O)cc1)c1cc2c(cc1C)C(C)(C)CCC2(C)C [6u, 1-(4-(1-(3,5,5,8,8-pentamethyl-5,6,7,8-tetrahydronaphthalen-2-yl)vinyl)phenyl)-1,4-dihydro-5h-tetrazol-5-one]
